One experiment deals with Mcl-1/Noxa interaction. Also noted: method as in PubChem BioAssay AID 1417. Conditions: Dose Response Confirmation for Mcl-1/Noxa Interaction Inhibitors; ref PubChem BioAssay AID 1417; cited from earlier work.
The target of a further experiment is T1, mutant Mcl-1 R263A (Homo sapiens, UniProt Q07820, R263A).
T1 construct: human Mcl-1 (residues 171–323); His tag (pHis-TEV vector) (N); made in house; host or cells: E. coli Rosetta2 DE3
In words: BLI-based direct binding assay. Conditions: compared with wild-type Mcl-1. As to the method:
Mcl-1 and mutant Mcl-1 R263A proteins were biotinylated using the Thermo EZ-link Sulpho-NHS-LC-biotin biotinylation kit (cat. 21435). Protein and biotin were mixed in a 1:1 molar ratio in PBS on ice for 2 hours. The reaction mixture was dialyzed in PBS buffer to remove excess biotin. BLI experiments were performed using an OctetRED96 instrument from PALL/ForteBio. All experiments were performed at 30 °C using PBS (Gibco, #10010-23), and 0.005% Tween 20 as the assay buffer. Assays were conducted in 96-well, black, microplates (Greiner bio-one, #655209) containing the protein solutions for immobilization, pure assay buffer for dissociation, and serial dilutions of compounds in the presence of 5% DMSO to be tested. During the experiment, sample plates were continuously shaken at 1000 rpm. Biotinylated proteins were immobilized on Super Streptavidin (SSA) biosensors by dipping sensors into plate wells containing protein solutions. Biotinylated blocked Streptavidin sensors were used as control sensors prepared by the protocol provided from the manufacturer. Association (3 Minutes) and dissociation (3 Minutes) cycles of compounds were started by dipping sensors to compound wells with different tested concentrations as well as in pure buffer wells. Buffer-only reference was included in all assays. […]

In a further experiment the test system is Bcl-2. In words: FP-based competitive binding assay with FAM-Bid. Also noted: species or system human. Conditions: ratio of Ki.

The text below walks through data of PMC6033896, “Discovery of Mcl-1 inhibitors from integrated high throughput and virtual screening” (Scientific Reports, 2018).

T1 sequence (Q07820 171-323 R263A): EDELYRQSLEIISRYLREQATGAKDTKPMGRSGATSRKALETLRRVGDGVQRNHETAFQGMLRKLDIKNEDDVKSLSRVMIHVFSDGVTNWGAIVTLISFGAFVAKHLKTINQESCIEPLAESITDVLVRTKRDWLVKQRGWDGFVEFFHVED

In general, IC50 refers to the concentration needed to halve the response being measured. On to `O=C(CSc1nnc(-c2ccco2)c(-c2ccco2)n1)Nc1ccccc1` [Compound 19], for which the IC50 in the experiment with Mcl-1/Noxa interaction was 3.1 µM. In addition, the “binding to mutant R263A Mcl-1 (BLI)” value at mutant Mcl-1 R263A was “no appreciable binding”.
Consider `O=C(CSc1nnc(-c2ccco2)c(-c2ccco2)n1)Nc1cccc(C(F)(F)F)c1` [Compound 39], for which, in the experiment on Bcl-2, the “fold lower binding affinity to Bcl-2 than to Mcl-1” value is reported as more than 20 fold.
